From ChEMBL document CHEMBL1201862, “PubChem BioAssay data set” (2004)
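A five-concentration, 48-hour dose response in 96-well plates underlies each endpoint, interpolated linearly between surrounding concentrations. Abbreviation: GI50, concentration required for 50% inhibition of growth.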 Active and inactive are the calls of the source. Rule as the data show it: active = GI50 up to about 1.1 µM and inactive = higher.

Experiments:
Experiment in all cases: NCI-60 cell line screen, 48 h
[1] = system: SR
[2] = system: A498
[3] = system: CCRF-CEM
[4] = system: IGROV-1
[5] = system: 786-0
[6] = system: SK-OV-3
[7] = system: MOLT-4
[8] = system: SW-620
[9] = system: UACC-62
[10] = system: SK-MEL-2
[11] = system: HT-29
[12] = system: HOP-92
[13] = system: NCI-H460
[14] = system: HL-60
[15] = system: SF-295

Compound	GI50 [1]	GI50 [2]	GI50 [3]	GI50 [4]	GI50 [5]	GI50 [6]	GI50 [7]	GI50 [8]	GI50 [9]	GI50 [10]	GI50 [11]	GI50 [12]	GI50 [13]	GI50 [14]	GI50 [15]
COC(=O)C1(O)c2ccccc2N=C2C1CCN2C (configuration not stated)	> 100 µM (inactive)	> 100 µM (inactive)	> 100 µM (inactive)	> 100 µM (inactive)	> 100 µM (inactive)	> 100 µM (inactive)	> 100 µM (inactive)	> 100 µM (inactive)	> 100 µM (inactive)	> 100 µM (inactive)	> 100 µM (inactive)	> 100 µM (inactive)	> 100 µM (inactive)	> 100 µM (inactive)	> 100 µM (inactive)
COc1cc2c(cc1OC)-c1c(cc(OC)c(OC)c1OC)C2=O	> 100 µM (inactive)	–	81.7 µM (inactive)	> 100 µM (inactive)	> 100 µM (inactive)	93.3 µM (inactive)	> 100 µM (inactive)	> 100 µM (inactive)	> 100 µM (inactive)	–	> 100 µM (inactive)	> 100 µM (inactive)	> 100 µM (inactive)	98.6 µM (inactive)	> 100 µM (inactive)
O=C1C2Nc3ccccc3SC2C(=O)N1c1ccc(Br)cc1 (configuration not stated)	–	26 µM (inactive)	> 10 µM (inactive)	53.1 µM (inactive)	18.9 µM (inactive)	15.6 µM (inactive)	25.4 µM (inactive)	45 µM (inactive)	20 µM (inactive)	17.7 µM (inactive)	36.1 µM (inactive)	10.9 µM (inactive)	47 µM (inactive)	> 10 µM (inactive)	26.6 µM (inactive)
Cc1ccc(Cl)c(NC(=O)C(=O)C(C(=O)c2ccncc2)C2OC(=O)c3ccccc32)c1 (configuration not stated)	> 100 µM (inactive)	> 100 µM (inactive)	0.512 µM (active)	> 100 µM (inactive)	> 100 µM (inactive)	> 100 µM (inactive)	–	> 100 µM (inactive)	> 100 µM (inactive)	–	> 100 µM (inactive)	> 100 µM (inactive)	> 100 µM (inactive)	> 100 µM (inactive)	> 100 µM (inactive)
CCO/S(=N/S(=O)(=O)c1ccccc1)c1ccccc1[N+](=O)[O-] (configuration not stated)	> 100 µM (inactive)	–	80.2 µM (inactive)	> 100 µM (inactive)	> 100 µM (inactive)	> 100 µM (inactive)	> 100 µM (inactive)	> 100 µM (inactive)	> 100 µM (inactive)	> 100 µM (inactive)	> 100 µM (inactive)	–	> 100 µM (inactive)	–	> 100 µM (inactive)
CC(C)(C)C(=O)C(c1ccc(-c2cscn2)cc1)c1ccc(-c2cscn2)cc1	–	21.9 µM (inactive)	> 100 µM (inactive)	37.8 µM (inactive)	21.5 µM (inactive)	29.8 µM (inactive)	> 100 µM (inactive)	> 100 µM (inactive)	21.7 µM (inactive)	21.4 µM (inactive)	72.3 µM (inactive)	9.55 µM (inactive)	40.5 µM (inactive)	> 100 µM (inactive)	18.1 µM (inactive)
Cc1cc(C(=O)N2CCN(Cc3ccccc3)CC2)c(C)o1	> 100 µM (inactive)	> 100 µM (inactive)	> 100 µM (inactive)	> 100 µM (inactive)	> 100 µM (inactive)	> 100 µM (inactive)	> 100 µM (inactive)	> 100 µM (inactive)	> 100 µM (inactive)	–	> 100 µM (inactive)	> 100 µM (inactive)	> 100 µM (inactive)	25.4 µM (inactive)	> 100 µM (inactive)
CC1(C)COC(C2(C)C(=O)C=C(c3ccccc3)c3ccccc32)=N1 (configuration not stated)	37.2 µM (inactive)	–	35.5 µM (inactive)	47.5 µM (inactive)	59.8 µM (inactive)	22.4 µM (inactive)	25.8 µM (inactive)	81.8 µM (inactive)	54.3 µM (inactive)	37.3 µM (inactive)	30.5 µM (inactive)	21.8 µM (inactive)	36.9 µM (inactive)	27 µM (inactive)	37.9 µM (inactive)
O=C1CCNC/C1=C\c1ccccc1	25.2 µM (inactive)	> 100 µM (inactive)	–	29.9 µM (inactive)	15.6 µM (inactive)	55 µM (inactive)	24.7 µM (inactive)	21.8 µM (inactive)	17.1 µM (inactive)	54 µM (inactive)	15.6 µM (inactive)	–	30.9 µM (inactive)	16.3 µM (inactive)	26.9 µM (inactive)
CC1=CP(=O)(c2ccccc2)C=C(C)C1=C(Cl)Cl (configuration not stated)	–	–	3.93 µM (inactive)	17.3 µM (inactive)	4.1 µM (inactive)	29.4 µM (inactive)	3.91 µM (inactive)	3.82 µM (inactive)	6.43 µM (inactive)	–	3.55 µM (inactive)	–	3.35 µM (inactive)	2.12 µM (inactive)	5.38 µM (inactive)
CCOC(=O)NC(=O)c1cn(CCCOC(=O)NCCCCCCNC(=O)OCCCn2c(=O)c(C(=O)NC(=O)OCC)cn(C)c2=O)c(=O)n(C)c1=O	–	> 100 µM (inactive)	> 100 µM (inactive)	> 100 µM (inactive)	> 100 µM (inactive)	> 100 µM (inactive)	> 100 µM (inactive)	> 100 µM (inactive)	> 100 µM (inactive)	> 100 µM (inactive)	> 100 µM (inactive)	> 100 µM (inactive)	> 100 µM (inactive)	> 100 µM (inactive)	–
COc1ccc(/C=N/N=C(\N)NO)c(OC)c1	–	–	79.8 µM (inactive)	> 100 µM (inactive)	57.5 µM (inactive)	75.2 µM (inactive)	77.6 µM (inactive)	45.4 µM (inactive)	27.9 µM (inactive)	52.4 µM (inactive)	–	11.2 µM (inactive)	–	–	16.1 µM (inactive)
CC(C)OP(=O)(OC(C)C)/C(Cl)=N/Nc1ccc([N+](=O)[O-])cc1	92.3 µM (inactive)	24 µM (inactive)	59 µM (inactive)	–	> 100 µM (inactive)	–	53.6 µM (inactive)	> 100 µM (inactive)	44.8 µM (inactive)	> 100 µM (inactive)	–	44.9 µM (inactive)	> 100 µM (inactive)	43.7 µM (inactive)	–
CCOC(=O)C(=O)Nc1nc2ccc(OC)cc2s1	–	> 100 µM (inactive)	> 100 µM (inactive)	> 100 µM (inactive)	> 100 µM (inactive)	> 100 µM (inactive)	> 100 µM (inactive)	> 100 µM (inactive)	> 100 µM (inactive)	> 100 µM (inactive)	> 100 µM (inactive)	> 100 µM (inactive)	> 100 µM (inactive)	> 100 µM (inactive)	> 100 µM (inactive)
NC(=S)NNc1c([N+](=O)[O-])cnn(-c2ccccc2)c1=O	4.05 µM (inactive)	–	–	19.1 µM (inactive)	20.3 µM (inactive)	21.6 µM (inactive)	12.6 µM (inactive)	13.1 µM (inactive)	12.1 µM (inactive)	–	18 µM (inactive)	19.9 µM (inactive)	17.9 µM (inactive)	4.62 µM (inactive)	15.1 µM (inactive)
CCOC(=O)NC(=O)c1cn(C2CCCCC2)c(=O)[nH]c1=O	–	85.3 µM (inactive)	33.3 µM (inactive)	54.8 µM (inactive)	24.7 µM (inactive)	77.3 µM (inactive)	41.8 µM (inactive)	17.4 µM (inactive)	40 µM (inactive)	> 100 µM (inactive)	6.67 µM (inactive)	> 100 µM (inactive)	32.2 µM (inactive)	7.53 µM (inactive)	94 µM (inactive)
CC1CCCc2c1c1ccc3c(O)cccc3c1oc2=O (configuration not stated)	> 100 µM (inactive)	–	67.1 µM (inactive)	39.6 µM (inactive)	19.5 µM (inactive)	20.7 µM (inactive)	> 100 µM (inactive)	> 100 µM (inactive)	35.1 µM (inactive)	28.9 µM (inactive)	> 100 µM (inactive)	–	> 100 µM (inactive)	> 100 µM (inactive)	14.8 µM (inactive)
Cc1ccc(NC(=O)CC2Sc3ccccc3NC2=O)c(C)c1 (configuration not stated)	–	14 µM (inactive)	10.7 µM (inactive)	23.6 µM (inactive)	13.7 µM (inactive)	15.5 µM (inactive)	6.71 µM (inactive)	11.4 µM (inactive)	12.2 µM (inactive)	4.56 µM (inactive)	–	17.4 µM (inactive)	11.4 µM (inactive)	2.73 µM (inactive)	16.2 µM (inactive)
Nc1ncnc2c1ncn2C1(CO)OC(CO)C(O)C1O (configuration not stated)	> 100 µM (inactive)	> 100 µM (inactive)	> 100 µM (inactive)	–	> 100 µM (inactive)	> 100 µM (inactive)	> 100 µM (inactive)	> 100 µM (inactive)	–	> 100 µM (inactive)	> 100 µM (inactive)	> 100 µM (inactive)	> 100 µM (inactive)	> 100 µM (inactive)	> 100 µM (inactive)
N#CCc1nc2c(s1)C(=O)c1ccccc1C2=O	–	32.7 µM (inactive)	–	3.76 µM (inactive)	16.4 µM (inactive)	> 100 µM (inactive)	1.22 µM (inactive)	19.1 µM (inactive)	13.1 µM (inactive)	17.3 µM (inactive)	22.8 µM (inactive)	18.5 µM (inactive)	21.7 µM (inactive)	–	19.4 µM (inactive)
COc1cc([C@@H]2c3cc4c(cc3[C@@H](NC(=O)c3cccc(F)c3)C3COC(=O)[C@@H]32)OCO4)cc(OC)c1O (some centres not stated)	–	1.27 µM (inactive)	0.111 µM (active)	1.19 µM (inactive)	0.441 µM (active)	1.26 µM (inactive)	< 0.01 µM (active)	0.738 µM (active)	0.385 µM (active)	4.46 µM (inactive)	2.05 µM (inactive)	2.74 µM (inactive)	< 0.01 µM (active)	0.111 µM (active)	0.412 µM (active)
